Measurements as given in patent US5883076A, “Systemin” (Washington State University Research Foundation, Inc., priority 1994, dated 1999).
Where no end group is shown, it is not given here.

Key:
[1] = system: proteinase Inhibitor I and II; assay: Proteinase inhibitor inducing activity supplied through cut stems/petioles of young tomato plants, radial immunodiffusion of leaf juice; format: in vivo, tomato (Lycopersicon esculentum)
Protocol: A search was initiated for systemic signals inducing proteinase Inhibitor I and II genes in tomato leaf extracts. […] The polypeptide was purified using high-performance liquid chromatography (HPLC, see Materials and Methods, below). Inducing activity of the polypeptide was assayed by cutting the petioles of young plants and introducing eluted fractions from column separations into the cut over a period of 30 min. The plants were subsequently transferred to small vials of water, incubated under constant light for 24 hours as described (C. A. Ryan, Plant Physiol. 54, 328, 1974), and the amount of proteinase Inhibitor I and II in the leaf juice was quantified by radial immunodiffusion in agar gels that contained rabbit antiserum to Inhibitor I or Inhibitor II (C. A. Ryan, Anal. Biochem. 19, 434, 1967; R. Trautman, K. Cowan, G. Wagner, Immunochemistry 8, 901, 1971). Over 30,000 young tomato plants were assayed over a 2.5 year period.
The leaves were incubated in solutions containing the synthetic systemin polypeptide and the proteinase inhibitors were assayed as described above in Example 1. Each data point was obtained from assays of the leaves of 36 tomato plants.

[2] = in vivo
[3] = in vivo; cited from earlier work
[4] = Loss of inducing activity of purified systemin after acid hydrolysis or proteolytic enzymes; format: physicochemical
[5] = supplied to cut stems of young tomato plants

In the case of “NH3 -AVQSKPPSKRDPPKMQTD-COO- [synthetic systemin polypeptide]”, the “activity on a molar basis relative to previously reported PIIF oligogalactunonide inducers” value ([1]; in vivo) was “about 10^5 times”, the “amount of polypeptide required to produce half maximal accumulation of Inhibitors I and II” value [1, 5] was “About 40 fmol per plant” and the “bioactivity for inducing synthesis and accumulation of Inhibitor I and II compared with native systemin” value [1, 5] was “as effective as the native systemin polypeptide”.
With “^14 C-labeled polypeptide: synthetic systemin with [14C] Ala added to residues 2 through 18 (AVQSKPPSKRDPPKMQTD; also: 14C label, positions not clearly stated; UniProt P27058 179-196, looked up)” the “time for radioactivity to move throughout the leaf” value [2] was no more than 30 min and the “time to identification of radiolabeled systemin in phloem exudate by HPLC” value [2] was 1 to 2 h.
For α-1, 4-oligogalacturonides, the “mobility from wound sites” value [3] is given as “not found to be mobile”.
With `CSCC[C@H](NC(=O)[C@H](CCCCN)NC(=O)[C@@H]1CCCN1C(=O)[C@@H]1CCCN1C(=O)[C@H](CC(=O)O)NC(=O)[C@H](CCCNC(=N)N)NC(=O)[C@H](CCCCN)NC(=O)[C@H](CO)NC(=O)[C@@H]1CCCN1C(=O)[C@@H]1CCCN1C(=O)[C@H](CCCCN)NC(=O)[C@H](CO)NC(=O)[C@H](CCC(N)=O)NC(=O)[C@@H](NC(=O)[C@H](C)N)C(C)C)C(=O)N[C@@H](CCC(N)=O)C(=O)N[C@H](C(=O)N[C@@H](CC(=O)O)C(=O)O)[C@@H](C)O` [systemin, NH3 -AVQSKPPSKRDPPKMQTD-COO-] the “activity after acid hydrolysis” value [4] was “total loss of activity”, the “activity in the presence of trypsin and other proteolytic enzymes” value [4] was “partial loss of activity” and the “number of tomato plants in which the sample could induce maximal accumulation of proteinase inhibitors” value ([1]; step 6 sample, approximately 1 μg of protein) was 40,000 tomato plants.
